Data published in paper PMC12372887, “Mechanism and cellular actions of the potent AMPK inhibitor BAY-3827” (Science Advances, 2025).

Assays:
GSK3b = GSK3b (Homo sapiens, UniProt P49841); assay: Kinase panel (140 human kinases); type: biochemical
Experimental: BAY-3827 and BAY-974 were assayed against a 140-human kinase panel at 0.1 μM and at 1 μM (BAY-3827) concentration in a [γ-^33P] ATP–based radioactive filter binding assay ([31], [65]) setup in duplicates with reported mean remaining kinase percentage activity alongside SD (table S1). Assays were performed at either 5, 20, or 50 μM ATP to be at or below the Michaelis constant for ATP for each enzyme and conducted by the services offered by the International Centre for Kinase Profiling at MRC Protein Phosphorylation and Ubiquitylation Unit, University of Dundee (https://www.kinase-screen.mrc.ac.uk/services/premier-screen).

[1] = test system: pThr172-AMPKα in U2OS cells; assay: HTRF assay of Thr172-AMPKα phosphorylation in U2OS cells; type: cell-based, human; conditions: for EC50: Homo sapiens, U2OS; for AMPK phosphorylation (pThr172): dose response
Experimental: Human osteosarcoma U2OS WT cells were obtained from John Rouse (MRC Protein Phosphorylation and Ubiquitylation Unit, University of Dundee) and were cultured in DMEM high glucose + GlutaMAX Supplement, pyruvate (Thermo Fisher Scientific, catalog no. 31966-021) containing penicillin G (100 U/ml), streptomycin (100 μg/ml), and 10% (v/v) FBS seeding with 50,000 cells per well in a 50-μl volume in culture 96-well cell culture plates (Corning Incorporated costar, #3599). The next day, the media were changed to 50 μl of serum-free media, and 50 μl of serum-free media containing BAY-3827 or BAY-974 was dispensed and left to incubate at 37°C for 30 min. […] HTRF assays using either phospho-Ser^79-ACC1 kit (Revvity, #64ACCPEG) or phospho-Thr^172-AMPK kit (Revvity, #64AMPKPEG) were performed in triplicate in HTRF 96-well low volume white plates (Revvity, #66PL96001) following manufacturer’s instructions. Sealed plates incubated overnight in darkness conditions were scanned at room temperature in Multimode Plate Reader EnVision (PerkinElmer) machine following HTRF setup recommendations for EnVision (Revvity), equipped with a top mirror LANCE/DELFIA single mirror (#412), a UV2 (TRF) 320 excitation filter (#111), emission filter APC 665 (#205), and second emission filter Europium 615 (#203), with a 2000-μs cycle and 60-μs delay, with the number of flashes set to 100 as well as for the 2nd detector. Results were viewed in EnVision Manager software (version 1.13.3009.1401) where 665/615 ratios were calculated, and data were normalized to control condition as %. All assay ratios between control lysate signal/nonspecific signal were greater than 2 as expected of a successful assay following the manufacturer’s instructions. Data were visualized in GraphPad Prism v10.

ULK1 = target: T1, ULK1 (Homo sapiens, UniProt O75385); assay: Cell-free ULK1 kinase assay (S108tide); type: biochemical; conditions: increasing concentrations, 0 to 1 μM
T1 sequence (O75385 1-1050): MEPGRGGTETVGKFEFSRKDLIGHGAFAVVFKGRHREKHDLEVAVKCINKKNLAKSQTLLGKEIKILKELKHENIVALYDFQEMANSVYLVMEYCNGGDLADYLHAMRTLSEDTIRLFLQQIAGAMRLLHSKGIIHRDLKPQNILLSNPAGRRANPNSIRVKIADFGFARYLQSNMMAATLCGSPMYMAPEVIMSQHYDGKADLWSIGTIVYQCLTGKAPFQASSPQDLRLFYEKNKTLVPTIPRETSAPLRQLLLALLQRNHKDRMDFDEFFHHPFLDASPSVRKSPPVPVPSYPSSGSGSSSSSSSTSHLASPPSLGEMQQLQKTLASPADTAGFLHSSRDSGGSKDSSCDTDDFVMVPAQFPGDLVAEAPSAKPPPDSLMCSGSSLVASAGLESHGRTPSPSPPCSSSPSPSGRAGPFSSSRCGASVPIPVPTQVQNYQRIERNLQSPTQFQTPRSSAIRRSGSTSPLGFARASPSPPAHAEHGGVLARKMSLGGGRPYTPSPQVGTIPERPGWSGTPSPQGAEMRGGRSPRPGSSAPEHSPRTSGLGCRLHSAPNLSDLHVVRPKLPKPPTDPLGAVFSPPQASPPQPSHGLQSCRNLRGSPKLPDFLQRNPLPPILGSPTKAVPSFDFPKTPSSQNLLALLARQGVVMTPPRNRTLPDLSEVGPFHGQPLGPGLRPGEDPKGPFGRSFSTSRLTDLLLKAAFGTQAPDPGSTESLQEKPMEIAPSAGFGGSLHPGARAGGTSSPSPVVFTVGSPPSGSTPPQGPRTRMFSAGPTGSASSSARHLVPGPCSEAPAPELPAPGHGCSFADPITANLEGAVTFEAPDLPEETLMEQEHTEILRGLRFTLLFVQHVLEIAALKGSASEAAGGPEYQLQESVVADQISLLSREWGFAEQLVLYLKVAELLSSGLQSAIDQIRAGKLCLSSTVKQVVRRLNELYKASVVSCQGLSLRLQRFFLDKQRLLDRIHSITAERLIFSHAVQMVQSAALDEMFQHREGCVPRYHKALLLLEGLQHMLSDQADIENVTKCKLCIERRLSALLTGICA
Experimental: Heterotrimeric human AMPK FLAG- α1β1γ1, FLAG- α2β1γ1, and FLAG- α2β2γ1, as well as human FLAG-CaMKK2 and FLAG-ULK1, were produced in mammalian HEK293 cells as described ([66], [67]). For AMPK expression, the cells were triply transfected at 60% confluency using FuGene HD (Roche Applied Science) and 1 μg of pcDNA3 plasmid expression constructs for AMPK Flag-α1, β1-Myc, β2-Myc, and HA-γ1. For CaMKK2 expression, the cells were transfected with 1 μg of pcDNA3 Flag-CaMKK2 plasmid. For ULK1 expression, the cells were transfected with […] of pcDNA3 FLAG-ULK1 plasmid. After 48 hours, the transfected cells were harvested by rinsing with ice-cold PBS, followed by rapid lysis using 500 μl of lysis buffer. AMPK, CaMKK2, and ULK1 kinase activities were determined by phosphorylation of synthetic peptide substrates: SAMS (HMRSAMSGLHLVKRR), CaMKKtide ([…]), and S108tide. (KLPLTRSHNNFVARRR), respectively. Briefly, recombinant AMPK, CaMKK2, or ULK1 were immunoprecipitated from 10 μg of transfected cultured cell lysate using 10 μl of anti-FLAG M2 agarose beads [50% (v/v)] […] Radioactivity was quantified by liquid scintillation counting. […]

Chain of GSK3b (P49841 whole entry): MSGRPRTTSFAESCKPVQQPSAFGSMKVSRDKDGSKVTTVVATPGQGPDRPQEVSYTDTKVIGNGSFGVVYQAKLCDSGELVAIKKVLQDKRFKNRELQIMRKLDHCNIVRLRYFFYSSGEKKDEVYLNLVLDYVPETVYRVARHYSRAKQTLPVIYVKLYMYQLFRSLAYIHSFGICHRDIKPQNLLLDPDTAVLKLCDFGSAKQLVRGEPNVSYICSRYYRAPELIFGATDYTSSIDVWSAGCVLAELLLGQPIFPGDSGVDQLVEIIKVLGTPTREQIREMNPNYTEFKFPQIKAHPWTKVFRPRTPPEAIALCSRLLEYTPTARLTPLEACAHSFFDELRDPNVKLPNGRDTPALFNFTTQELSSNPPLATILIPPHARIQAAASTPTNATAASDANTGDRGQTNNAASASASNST

Compound | remaining activity at 0.1 µM (GSK3b) [%] | EC50 ([1]; + MK-8722 (10 μM)) [µM] | EC50 ([1]; without MK-8722) [µM] | AMPK phosphorylation (pThr172) [1] | inhibitory effect on kinase activity (ULK1)
CCc1ccccc1C(=O)Nc1n[nH]c2c(C)c(F)c(C3C(C#N)=C(C)N(C)C(C)=C3C#N)cc12 [BAY-3827, N-[5-(3,5-dicyano-1,2,6-trimethyl-4H-pyridin-4-yl)-6-fluoro-7-methyl-1H-indazol-3-yl]-2-ethylbenzamide] | 74 | 0.57 | 1.93 | dose-dependently increased | no inhibitory effect
CC1=C(C#N)C(c2ccc3c(c2)c(NC(=O)c2ccccc2C)nn3C)C(C#N)=C(C)N1 [BAY-974, N-[5-(3,5-dicyano-2,6-dimethyl-1,4-dihydropyridin-4-yl)-1-methylindazol-3-yl]-2-methylbenzamide] | 93 | – | – | not | no inhibitory effect
